Assay [1] has as its target Tyrosine-protein kinase Lyn (Homo sapiens) (UniProt P07948). Put plainly: Inhibition of MIB binding to LYN in human NCI-H2228 cells at 0.01 to 10 uM incubated for 1 hr by MIB/MS competitive binding analysis. It counts as cell-based. To be noted: dose 0.01-10 µM.
Assay [2] addresses Tyrosine-protein kinase Yes (Homo sapiens) (UniProt P07947). Put plainly: Inhibition of MIB binding to YES1 in human NCI-H2228 cells at 0.01 to 10 uM incubated for 1 hr by MIB/MS competitive binding analysis. It is filed as cell-based. To be noted: dose 0.01-10 µM.
Assay [3] has as its target Cyclin-dependent kinase 4 (Homo sapiens) (UniProt P11802). Briefly: Inhibition of MIB binding to CDK4 in human NCI-H2228 cells at 0.01 to 10 uM incubated for 1 hr by Western blotting analysis. It counts as cell-based. As to conditions: dose 0.01-10 µM. Background: Immunoblotting shows a protein as a band on a membrane.
The target in assay [4] is Glycogen synthase kinase-3 beta (Homo sapiens) (UniProt P49841). Briefly: Inhibition of MIB binding to GSK3beta in human NCI-H2228 cells at 0.01 to 10 uM incubated for 1 hr by Western blotting analysis. It is filed as cell-based. As to conditions: dose 0.01-10 µM.
The target in assay [5] is Calcium/calmodulin-dependent protein kinase type II subunit beta (Homo sapiens, UniProt Q13554). Put plainly: Inhibition of human CAMK2beta preincubated with compound for 20 mins followed by [33P]ATP addition and measured after 2 hrs by filter binding method.
In assay [6] the test system is RKO. Briefly: Effect on beta-catenin protein level in human RKO cells at 5 uM incubated for 6 hrs by Western blotting analysis. It is filed as functional, cell-based.
Assay [7] concerns L-M(TK-). Briefly: Effect on beta-catenin protein level in mouse L-M(TK-) cells at 5 uM incubated for 6 hrs by Western blotting analysis. It is filed as functional, cell-based.
Assay [8] has as its target Calcium/calmodulin-dependent protein kinase type II subunit delta (Homo sapiens, UniProt Q13557). Briefly: Inhibition of human CAMK2delta preincubated with compound for 20 mins followed by [33P]ATP addition and measured after 2 hrs by filter binding method.
Assay [9] has as its target Calcium/calmodulin-dependent protein kinase type II subunit gamma (Homo sapiens, UniProt Q13555). Put plainly: Inhibition of human CAMK2gamma preincubated with compound for 20 mins followed by [33P]ATP addition and measured after 2 hrs by filter binding method.
The target of assay [10] is Dual specificity mitogen-activated protein kinase kinase 1 (Homo sapiens) (UniProt Q02750). Put plainly: Inhibition of MIB binding to MEK1 in human NCI-H2228 cell lysate at high dose incubated for 1 hr by Western blotting analysis. It counts as subcellular.
In assay [11] the target is Dual specificity mitogen-activated protein kinase kinase 2 (Homo sapiens) (UniProt P36507). Put plainly: Inhibition of MIB binding to MEK2 in human NCI-H2228 cell lysate at high dose incubated for 1 hr by Western blotting analysis. It is filed as subcellular. To be noted: dose 3-3000 µM.
Assay [12] deals with Tyrosine-protein kinase receptor UFO (Homo sapiens) (UniProt P30530). Put plainly: Inhibition of MIB binding to AXL in human NCI-H2228 cell lysate at high dose incubated for 1 hr by Western blotting analysis. It counts as subcellular. To be noted: dose 3-3000 µM.
In assay [13] the target is Dual specificity mitogen-activated protein kinase kinase 1 (Homo sapiens) (UniProt Q02750). Put plainly: Inhibition of MIB binding to MEK1 in human NCI-H2228 cells at 3 to 3000 uM incubated for 1 hr by Western blotting analysis. It counts as cell-based. To be noted: dose 3-3000 µM.
Assay [14] has as its target Dual specificity mitogen-activated protein kinase kinase 2 (Homo sapiens) (UniProt P36507). Briefly: Inhibition of MIB binding to MEK2 in human NCI-H2228 cells at 3 to 3000 uM incubated for 1 hr by Western blotting analysis. It is filed as cell-based. As to conditions: dose 3-3000 µM.
In assay [15] the target is Tyrosine-protein kinase receptor UFO (Homo sapiens) (UniProt P30530). Briefly: Inhibition of MIB binding to AXL in human NCI-H2228 cells at 3 to 3000 uM incubated for 1 hr by Western blotting analysis. It is filed as cell-based. As to conditions: dose 3-3000 µM.
The target in assay [16] is Dual specificity mitogen-activated protein kinase kinase 1 (Homo sapiens) (UniProt Q02750). Put plainly: Inhibition of MIB binding to MEK1 in human NCI-H2228 cell lysate at 3 to 3000 uM pre-incubated with MIB followed by compound addition measured after 1 hr by Western blotting analysis. It is filed as subcellular. As to conditions: dose 3-3000 µM.
Assay [17] has as its target Dual specificity mitogen-activated protein kinase kinase 2 (Homo sapiens) (UniProt P36507). Put plainly: Inhibition of MIB binding to MEK2 in human NCI-H2228 cell lysate at 3 to 3000 uM pre-incubated with MIB followed by compound addition measured after 1 hr by Western blotting analysis. It counts as subcellular. As to conditions: dose 3-3000 µM.
Assay [18] concerns the target Tyrosine-protein kinase receptor UFO (Homo sapiens) (UniProt P30530). Briefly: Inhibition of MIB binding to AXL in human NCI-H2228 cell lysate at 3 to 3000 uM pre-incubated with MIB followed by compound addition measured after 1 hr by Western blotting analysis. It counts as subcellular. To be noted: dose 3-3000 µM.
Assay [19] concerns Mus musculus. Briefly: Inhibition of MIB binding to MEK1 in mouse kidney at 3 mg/kg, po measured after 2 hr by MIB/MS competitive binding analysis. It is filed as functional, organism-based.
The test system of assay [20] is Mus musculus. Briefly: Inhibition of MIB binding to MEK2 in mouse kidney at 3 mg/kg, po measured after 2 hr by MIB/MS competitive binding analysis. It counts as functional, organism-based.

Our source for the inhibition, IC50 and Activity values is ChEMBL document CHEMBL5715958 (Mol Cancer Res, 2018).

Calls of active or inactive are those of the source. The rule behind the calls is not given here.

Sequence of Tyrosine-protein kinase receptor UFO (Homo sapiens) (P30530 whole entry): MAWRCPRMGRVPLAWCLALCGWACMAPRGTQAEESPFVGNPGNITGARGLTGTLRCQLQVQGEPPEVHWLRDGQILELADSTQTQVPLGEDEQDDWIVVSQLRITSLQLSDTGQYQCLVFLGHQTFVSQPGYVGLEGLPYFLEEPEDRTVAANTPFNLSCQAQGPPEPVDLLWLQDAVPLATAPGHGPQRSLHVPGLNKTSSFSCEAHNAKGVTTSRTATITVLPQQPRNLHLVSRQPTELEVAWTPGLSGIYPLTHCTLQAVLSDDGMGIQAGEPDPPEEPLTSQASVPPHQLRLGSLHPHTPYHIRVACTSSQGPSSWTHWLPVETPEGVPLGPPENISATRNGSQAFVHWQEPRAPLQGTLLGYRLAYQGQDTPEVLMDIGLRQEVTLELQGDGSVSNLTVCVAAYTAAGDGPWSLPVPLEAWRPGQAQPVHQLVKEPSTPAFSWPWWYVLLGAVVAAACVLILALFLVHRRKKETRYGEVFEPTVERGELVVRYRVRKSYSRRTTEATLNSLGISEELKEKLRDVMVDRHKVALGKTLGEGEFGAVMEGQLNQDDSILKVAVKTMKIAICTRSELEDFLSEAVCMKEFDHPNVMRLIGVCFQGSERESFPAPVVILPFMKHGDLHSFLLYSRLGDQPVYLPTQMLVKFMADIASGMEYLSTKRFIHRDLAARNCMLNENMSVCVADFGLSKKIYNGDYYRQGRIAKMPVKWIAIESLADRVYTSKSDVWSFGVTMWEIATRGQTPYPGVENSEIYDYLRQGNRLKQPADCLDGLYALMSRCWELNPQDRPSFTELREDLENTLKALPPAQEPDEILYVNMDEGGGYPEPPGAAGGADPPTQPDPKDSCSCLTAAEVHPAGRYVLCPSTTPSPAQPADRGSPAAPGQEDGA
Sequence of Dual specificity mitogen-activated protein kinase kinase 2 (Homo sapiens) (P36507 whole entry): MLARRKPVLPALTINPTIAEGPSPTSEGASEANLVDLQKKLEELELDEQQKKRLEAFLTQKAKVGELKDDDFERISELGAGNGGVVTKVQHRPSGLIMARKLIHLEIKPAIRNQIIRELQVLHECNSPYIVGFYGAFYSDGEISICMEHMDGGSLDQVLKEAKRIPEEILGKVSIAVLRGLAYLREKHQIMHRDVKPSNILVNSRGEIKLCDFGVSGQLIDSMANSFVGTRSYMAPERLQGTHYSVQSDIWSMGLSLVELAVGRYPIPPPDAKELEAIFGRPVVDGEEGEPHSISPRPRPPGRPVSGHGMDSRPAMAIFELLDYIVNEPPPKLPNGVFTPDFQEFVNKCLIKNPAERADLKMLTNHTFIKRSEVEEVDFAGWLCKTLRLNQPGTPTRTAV
Sequence of Dual specificity mitogen-activated protein kinase kinase 1 (Homo sapiens) (Q02750 whole entry): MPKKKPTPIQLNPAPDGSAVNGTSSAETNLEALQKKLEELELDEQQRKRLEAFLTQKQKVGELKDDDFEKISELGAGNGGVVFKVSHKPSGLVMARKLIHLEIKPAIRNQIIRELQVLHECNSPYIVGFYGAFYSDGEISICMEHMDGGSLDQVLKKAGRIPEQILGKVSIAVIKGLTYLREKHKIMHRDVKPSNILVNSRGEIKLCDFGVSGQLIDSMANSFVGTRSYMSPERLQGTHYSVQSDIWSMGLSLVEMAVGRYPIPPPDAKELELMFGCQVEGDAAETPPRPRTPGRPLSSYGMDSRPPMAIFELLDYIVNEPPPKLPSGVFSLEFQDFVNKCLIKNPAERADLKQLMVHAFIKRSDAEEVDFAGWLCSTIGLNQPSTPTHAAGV
Sequence of Calcium/calmodulin-dependent protein kinase type II subunit beta (Q13554 whole entry): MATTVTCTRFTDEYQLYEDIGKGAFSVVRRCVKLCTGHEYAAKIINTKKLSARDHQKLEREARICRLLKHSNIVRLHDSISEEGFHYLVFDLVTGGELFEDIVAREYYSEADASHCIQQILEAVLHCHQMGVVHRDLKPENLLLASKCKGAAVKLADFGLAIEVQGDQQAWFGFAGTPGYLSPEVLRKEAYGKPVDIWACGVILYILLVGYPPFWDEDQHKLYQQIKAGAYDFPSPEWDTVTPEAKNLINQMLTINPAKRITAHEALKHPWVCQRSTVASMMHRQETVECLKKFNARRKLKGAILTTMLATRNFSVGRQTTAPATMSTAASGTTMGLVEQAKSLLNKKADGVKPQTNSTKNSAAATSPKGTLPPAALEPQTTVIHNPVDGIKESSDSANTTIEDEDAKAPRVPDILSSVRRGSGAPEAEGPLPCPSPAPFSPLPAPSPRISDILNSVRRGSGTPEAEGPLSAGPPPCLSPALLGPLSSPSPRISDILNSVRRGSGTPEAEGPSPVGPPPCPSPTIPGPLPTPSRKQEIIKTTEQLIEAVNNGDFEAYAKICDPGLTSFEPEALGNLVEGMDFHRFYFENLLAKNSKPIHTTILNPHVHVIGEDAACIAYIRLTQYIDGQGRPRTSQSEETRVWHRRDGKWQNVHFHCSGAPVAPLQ
Sequence of Calcium/calmodulin-dependent protein kinase type II subunit gamma (Q13555 whole entry): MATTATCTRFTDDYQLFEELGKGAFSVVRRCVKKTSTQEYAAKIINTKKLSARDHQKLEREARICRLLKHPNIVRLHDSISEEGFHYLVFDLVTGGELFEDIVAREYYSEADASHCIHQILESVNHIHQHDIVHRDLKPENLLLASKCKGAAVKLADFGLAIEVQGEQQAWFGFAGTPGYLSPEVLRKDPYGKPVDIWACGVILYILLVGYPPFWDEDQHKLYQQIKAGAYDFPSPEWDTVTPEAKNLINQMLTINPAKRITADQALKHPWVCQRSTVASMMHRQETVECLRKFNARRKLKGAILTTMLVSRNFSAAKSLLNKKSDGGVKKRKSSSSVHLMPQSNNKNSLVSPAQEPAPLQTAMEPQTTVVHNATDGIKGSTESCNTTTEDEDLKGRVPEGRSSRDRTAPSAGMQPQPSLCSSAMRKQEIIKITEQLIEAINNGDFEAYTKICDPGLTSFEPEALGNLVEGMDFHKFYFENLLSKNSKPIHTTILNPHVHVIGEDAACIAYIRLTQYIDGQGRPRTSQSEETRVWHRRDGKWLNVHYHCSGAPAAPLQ
Sequence of Cyclin-dependent kinase 4 (Homo sapiens) (P11802 whole entry): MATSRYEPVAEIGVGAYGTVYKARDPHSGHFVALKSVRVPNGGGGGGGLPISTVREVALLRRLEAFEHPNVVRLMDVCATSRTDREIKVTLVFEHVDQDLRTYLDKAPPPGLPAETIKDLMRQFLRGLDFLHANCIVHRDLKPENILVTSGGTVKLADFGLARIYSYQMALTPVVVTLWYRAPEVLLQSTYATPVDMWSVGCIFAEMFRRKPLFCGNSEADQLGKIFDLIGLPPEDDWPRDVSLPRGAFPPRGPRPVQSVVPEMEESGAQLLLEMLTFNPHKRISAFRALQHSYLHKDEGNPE
Sequence of Glycogen synthase kinase-3 beta (Homo sapiens) (P49841 whole entry, looked up): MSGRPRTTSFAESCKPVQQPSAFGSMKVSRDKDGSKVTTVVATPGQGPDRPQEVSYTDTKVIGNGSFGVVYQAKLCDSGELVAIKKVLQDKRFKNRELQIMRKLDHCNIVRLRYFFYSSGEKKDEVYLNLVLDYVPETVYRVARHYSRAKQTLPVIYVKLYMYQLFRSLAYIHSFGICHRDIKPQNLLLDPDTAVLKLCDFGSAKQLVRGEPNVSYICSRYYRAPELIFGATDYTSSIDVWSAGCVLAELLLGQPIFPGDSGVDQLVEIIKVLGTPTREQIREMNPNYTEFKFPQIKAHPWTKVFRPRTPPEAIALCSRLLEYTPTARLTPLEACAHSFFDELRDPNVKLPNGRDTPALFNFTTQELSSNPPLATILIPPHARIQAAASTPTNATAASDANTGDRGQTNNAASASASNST
Sequence of Calcium/calmodulin-dependent protein kinase type II subunit delta (Q13557 whole entry): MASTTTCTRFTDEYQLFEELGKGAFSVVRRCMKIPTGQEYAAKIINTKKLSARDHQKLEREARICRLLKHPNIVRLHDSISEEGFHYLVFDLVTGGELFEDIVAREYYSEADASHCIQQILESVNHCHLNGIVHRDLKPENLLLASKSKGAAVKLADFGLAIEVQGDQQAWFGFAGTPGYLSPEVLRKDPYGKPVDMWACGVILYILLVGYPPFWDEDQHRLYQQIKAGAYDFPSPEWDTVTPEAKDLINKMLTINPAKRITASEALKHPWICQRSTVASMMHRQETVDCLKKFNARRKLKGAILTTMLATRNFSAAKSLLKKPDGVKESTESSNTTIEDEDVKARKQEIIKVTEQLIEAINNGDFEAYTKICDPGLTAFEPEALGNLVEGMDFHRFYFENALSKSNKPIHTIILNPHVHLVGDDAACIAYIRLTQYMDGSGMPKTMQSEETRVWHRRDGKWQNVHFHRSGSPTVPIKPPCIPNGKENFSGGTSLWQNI
Sequence of Tyrosine-protein kinase Yes (Homo sapiens) (P07947 2-543 limits assumed): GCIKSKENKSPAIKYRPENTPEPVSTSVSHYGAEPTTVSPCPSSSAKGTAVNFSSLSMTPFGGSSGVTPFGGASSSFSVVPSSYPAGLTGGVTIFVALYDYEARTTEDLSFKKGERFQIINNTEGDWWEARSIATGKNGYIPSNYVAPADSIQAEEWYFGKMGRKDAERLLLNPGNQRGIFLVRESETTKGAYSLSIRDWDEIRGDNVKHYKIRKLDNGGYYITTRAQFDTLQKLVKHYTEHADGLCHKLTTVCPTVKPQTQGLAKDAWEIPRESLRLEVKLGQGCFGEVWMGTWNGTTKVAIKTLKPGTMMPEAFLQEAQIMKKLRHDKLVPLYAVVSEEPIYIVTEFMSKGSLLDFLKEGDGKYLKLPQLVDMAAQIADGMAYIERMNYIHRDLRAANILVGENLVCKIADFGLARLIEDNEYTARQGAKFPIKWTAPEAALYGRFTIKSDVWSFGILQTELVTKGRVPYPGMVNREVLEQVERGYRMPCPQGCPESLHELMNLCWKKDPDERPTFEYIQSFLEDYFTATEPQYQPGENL

For `Cc1nc(Nc2ncc(C(=O)Nc3c(C)cccc3Cl)s2)cc(N2CCN(CCO)CC2)n1`, the inhibition entry in assay [1] and in assay [2] was “Active” each time.
Consider `CN(C)C(=O)c1cc2cnc(Nc3ccc(N4CCNCC4)cn3)nc2n1C1CCCC1`, for which, in assay [3], the inhibition result is “Active”. In assay [4], the inhibition entry is “inactive”.
On to `CC(=O)c1c(C)c2cnc(Nc3ccc(N4CCNCC4)cn3)nc2n(C2CCCC2)c1=O` [PALBOCICLIB], for which the IC50 (commonly the midpoint of a concentration-inhibition curve) in assay [5] worked out at 1.6 µM. The result in assay [6] and in assay [7] was inactive.
As to `CCN1CCN(Cc2ccc(Nc3ncc(F)c(-c4cc(F)c5nc(C)n(C(C)C)c5c4)n3)nc2)CC1` [ABEMACICLIB], the IC50 in assay [5] is 0.0035 µM; in [8], 0.0026 µM; in assay [9], 0.052 µM.
`CC(=O)Nc1cccc(-n2c(=O)n(C3CC3)c(=O)c3c(Nc4ccc(I)cc4F)n(C)c(=O)c(C)c32)c1`: the inhibition result in [10], in [11], in assay [13], in assay [14], in assay [16] and in assay [17] was “Active” each time. Also, the inhibition entry in assay [19] and in [20] was “Active” in each case. Besides, the inhibition result in [12], in assay [15] and in assay [18] was “inactive” in each case.
